Source: the supplement of paper PMC10307832

Key:
Test in all cases: relative viability (nuclei count vs DMSO), 5 days (fraction); higher = more cells survive
Dabrafenib + Crizotinib = compound: CC(C)(C)c1nc(-c2cccc(NS(=O)(=O)c3c(F)cccc3F)c2F)c(-c2ccnc(N)n2)s1 [Dabrafenib] + C[C@@H](Oc1cc(-c2cnn(C3CCNCC3)c2)cnc1N)c1c(Cl)ccc(F)c1Cl [Crizotinib] (partner 1 µM)
Procedure, shortened: (§1)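 Relative viability was taken as the ratio of nuclei in treated wells to nuclei in vehicle wells. Lung cancer cell lines in 1536-well plates received compounds by pin tool one day after seeding, either one drug alone or a fixed anchor-drug dose plus five library-drug doses (not always all listed) in √10 steps. Nuclei were counted on 4× images after 5 days of treatment, and values are medians of duplicate plates.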

VX-702 + OSI-027 = compound: NC(=O)c1ccc(N(C(N)=O)c2c(F)cccc2F)nc1-c1ccc(F)cc1F [VX-702] + COc1cccc2cc(-c3nc([C@H]4CC[C@H](C(=O)O)CC4)n4ncnc(N)c34)[nH]c12 [OSI-027] (partner 0.5 µM)
Procedure, shortened: as §1

Dabrafenib + Decitabine = compound: CC(C)(C)c1nc(-c2cccc(NS(=O)(=O)c3c(F)cccc3F)c2F)c(-c2ccnc(N)n2)s1 [Dabrafenib] + Nc1ncn([C@H]2C[C@H](O)[C@@H](CO)O2)c(=O)n1 [Decitabine] (partner 2 µM)
Procedure, shortened: as §1

Dabrafenib + OSI-027 = compound: CC(C)(C)c1nc(-c2cccc(NS(=O)(=O)c3c(F)cccc3F)c2F)c(-c2ccnc(N)n2)s1 [Dabrafenib] + COc1cccc2cc(-c3nc([C@H]4CC[C@H](C(=O)O)CC4)n4ncnc(N)c34)[nH]c12 [OSI-027] (partner 0.5 µM)
Procedure, shortened: as §1

| Cell Line | relative viability (Dabrafenib + Crizotinib; first compound 0.003 µM) | relative viability (Dabrafenib + Crizotinib; first compound 0.009487 µM) | relative viability (Dabrafenib + Crizotinib; first compound 0.03 µM) | relative viability (Dabrafenib + Crizotinib; first compound 0.09487 µM) | relative viability (Dabrafenib + Crizotinib; first compound 0.3 µM) | relative viability (VX-702 + OSI-027; first compound 0.02 µM) | relative viability (VX-702 + OSI-027; first compound 0.2 µM) | relative viability (VX-702 + OSI-027; first compound 0.6325 µM) | relative viability (VX-702 + OSI-027; first compound 2 µM) | relative viability (Dabrafenib + Decitabine; first compound 0.009487 µM) | relative viability (Dabrafenib + Decitabine; first compound 0.03 µM) | relative viability (Dabrafenib + Decitabine; first compound 0.09487 µM) | relative viability (Dabrafenib + Decitabine; first compound 0.3 µM) | relative viability (Dabrafenib + OSI-027; first compound 0.009487 µM) | relative viability (Dabrafenib + OSI-027; first compound 0.03 µM) | relative viability (Dabrafenib + OSI-027; first compound 0.09487 µM) | relative viability (Dabrafenib + OSI-027; first compound 0.3 µM) | relative viability (Dabrafenib + Decitabine; first compound 0.003 µM) | relative viability (Dabrafenib + OSI-027; first compound 0.003 µM) |
| --- | --- | --- | --- | --- | --- | --- | --- | --- | --- | --- | --- | --- | --- | --- | --- | --- | --- | --- | --- |
| NCI-H596 | 1.48 | 1.06 | 0.86 | 0.954 | 0.932 | 0.807 | 0.737 | 0.797 | 0.823 | 1.1 | 0.821 | 1.02 | 0.88 | 0.976 | 0.63 | 0.658 | 0.886 |  |  |
| NCI-H23 |  | 0.603 | 0.541 | 0.421 | 0.495 | 0.604 | 0.643 | 0.688 | 0.559 | 0.343 | 0.352 | 0.333 | 0.32 | 0.602 | 0.471 | 0.435 | 0.486 |  |  |
| NCI-H650 |  | 0.715 | 0.657 | 0.515 | 0.551 | 0.562 |  | 0.567 | 0.595 | 0.324 | 0.33 | 0.303 | 0.251 | 0.578 | 0.427 | 0.331 | 0.301 |  |  |
| LCLC-103H | 1 | 1.13 | 0.935 | 1.17 | 1.06 | 0.49 | 0.485 | 0.417 | 0.458 | 0.776 | 0.696 | 0.658 | 0.745 | 0.502 | 0.46 | 0.51 | 0.461 | 0.724 | 0.4 |
| NCI-H441 |  | 0.746 | 0.694 | 0.593 | 0.697 | 0.564 | 0.547 | 0.5 | 0.544 | 0.253 | 0.279 | 0.247 | 0.203 | 0.465 | 0.565 | 0.438 | 0.352 |  |  |
| UMC-11 | 0.772 | 0.636 | 0.591 | 0.572 | 0.596 | 0.482 | 0.446 | 0.458 | 0.533 | 0.603 | 0.558 | 0.383 | 0.434 | 0.504 | 0.481 | 0.475 | 0.49 | 0.707 | 0.439 |
| LK-2 | 0.211 | 0.223 |  | 0.254 | 0.197 | 0.21 | 0.211 | 0.167 | 0.183 | 0.287 |  | 0.326 | 0.22 | 0.238 | 0.155 | 0.248 | 0.206 | 0.225 | 0.174 |
| COR-L23 | 0.644 | 0.627 | 0.633 | 0.607 | 0.55 | 0.989 | 0.75 | 0.766 | 0.961 | 0.47 | 0.41 | 0.432 | 0.279 | 0.803 | 0.732 | 0.6 | 0.61 | 0.475 | 0.768 |
| NCI-H2405 |  | 0.78 | 0.52 | 0.772 | 0.82 | 0.677 | 0.641 | 0.544 | 0.668 | 0.742 | 0.529 | 0.692 | 0.574 | 0.696 |  | 0.548 | 0.626 |  |  |
